Columns and labels:
[1] = tested on: PC KO and ACLY KO cells; test: Cell number / viability of PC KO and ACLY KO 143B cells; assay type: cell-based
Protocol: (§1) All cell lines, 143b, HeLa, U2OS, and transmitochondrial cybrids carrying mutation in CI (ND2), CIII (CytB) or CIV (Cox2) subunits, were maintained in DMEM high glucose (HyClone), 10% FBS and 1% P/S at 37°C with 5% CO2. Mitochondrial mutant cells were cultured with supplementation of 50 µg/mL uridine. The selected cancer cell lines with different levels of malic enzyme (HCC15, KYSE410, CAKI1, J82, MDAMB453, Colo320, NCIH1703) were obtained from the DSMZ-German Collection of Microorganisms and Cell Cultures GmbH and cultured in the same DMEM 10% FBS medium. OCI-Lys3 and RCH-ACV cell lines (cells in suspension), were obtained from the same repository and cultured in RPMI 10% FBS medium. Transfections for gain- and loss-of-function studies were performed according to the manufacturer's instructions using the polyfect reagent (Qiagen, 301107). For cell number and proliferation experiments, cells were seeded in 12 or 6-well plates and allowed to proliferate for the specified durations. Subsequently, cells were trypsinized and quantified using a hemocytometer (NanoEnTek, DHC-N01). Cell viability was quantified using propidium iodide (PI; 50 µg/ml) staining.
Generation of knockout cell lines using CRISPR-Cas9 technology was performed with the lenti-CRISPR v2 vector (Addgene #52961). Guide sequences are: • sgGFPT1, 5-[…]-3 (SEQ ID NO: 1); • sgG6PD, 5-[…]-3 (SEQ ID NO: 2); • sgPHGDH, 5-[…]-3 (SEQ ID NO: 3); • sgMPC1, 5-[…]-3 (SEQ ID NO: 4) • sgPC, 5-CAGGCCCGGAACACACGGA-3 (SEQ ID NO: 5); • sgACLY, 5-[…]-3 (SEQ ID NO: 6); • sgME1, 5-[…]-3 (SEQ ID NO: 7).
To assess the relative contribution of PC and ACLY to cell death phenotype in ETC deficient cells upon PPP inhibition, we treated PC KO and ACLY KO cells with Piericidin, G6PDi or both. A massive reduction in cell viability was observed as early as 48 h in both PC KO and ACLY KO cells after dual inhibition (Figure 3E), which correlated with a significant decrease in the intracellular levels of malate (Figure 3F). […]

[2] = tested on: 143B cells; test: Time-course cell proliferation / survival of 143B cells; assay type: cell-based; settings: 143B cells, over the course of 96 h; Piericidin 100 nM, G6PDi 50 uM; combination effect beyond 48 h
Protocol: as §1, with “For cell number and proliferation experiments, cells were seeded in 12 or 6-well plates and allowed to proliferate for the specified durations.” left out
Next, we conducted time-course experiments to gain further knowledge on the metabolic determinants underlying the observed synthetic lethality between PPP and OXPHOS. 143B cells were treated either with Piericidin or G6PDi (selective inhibitor of G6PD) alone or the combination of both and cell proliferation was quantified over the course of 96 h. […]

CC=C(C)C(O)C(C)C=C(C)C=CCC(C)=CCc1nc(OC)c(OC)c(O)c1C (stereo not shown) [Piericidin, Piericidin A]
cell death or cell proliferation ([1]; ACLY KO cells): did not translate into increased cell death or impaired cell proliferation
proliferation ([1]; PC KO cells, 100 nM, 72 h): proliferated normally
sensitivity to ETC inhibition (cell number) ([1]; double ablation of PC and ACLY, 100 nM, 72 h): sensitize
cellular fitness / cell survival [2]: did not cause a substantial decline
